These results are taken from US20240294521A1, “CRYSTALLINE FORMS, COMPOSITIONS CONTAINING SAME, AND METHODS OF THEIR USE” (Repare Therapeutics Inc., priority 2021, published 2024).

Common to all, as to assay type: physicochemical
Data set [1] is described as follows: Storage stability of the crystalline forms (25° C./60% RH, 40° C./75% RH). The following applies: for appearance after exposure / solid-form stability (XRPD): one-week exposure to 75% RH at 40° C.; for XRPD of the samples after exposure vs t=0: 25° C./60% RH and 40° C./75% RH, closed and open vial, 1, 2 and 4 weeks. As for the experimental part: Example 8. Storage Stability of the Crystalline Forms
The forms were evaluated with a closed vial and an open vial.
Crystalline Hydrogen Sulfate Form B. […] Approximately 30 mg of crystalline hydrogen sulfate form B was weighed into a 4 mL vial and covered with a KIMWIPE. […]
Crystalline Sulfate Form A. […] Approximately 30 mg of crystalline sulfate form A was weighed into a 4 mL vial and covered with a KIMWIPE. […]

Data set [2] can be described thus: Dynamic Vapor Sorption analysis (DVS), hygroscopicity. Particulars: 2-95% RH.
Assay in data set [3]: as above
Particulars: for moisture uptake: 0-90% RH change by DVS; for Hygroscopicity by DVS: 25° C./0-90% RH change; for form change by XRPD after DVS: after 0-90% RH; for Hygroscopicity: weight increase at 80% RH, 25° C. The procedure:
Dynamic Vapor Sorption Analysis (DVS)
• Instrument: DVS Intrinsic, Surface Measurement Systems • Parameters: 25° C., 0-90-0% RH for 2 cycles

Data set [4] can be described thus: Form stability of crystalline hydrogen sulfate forms A and B in buffered 0.5% methylcellulose/0.02% sodium lauryl sulfate. The procedure:
Example 7. Form Stability of Crystalline Hydrogen Sulfate Forms A and B in Buffered 0.5% Methylcellulose (v/v) (400 cps)/0.02% Sodium Lauryl Sulfate (v/v)
Crystalline hydrogen sulfate form A was used for form stability studies in 0.5% methylcellulose (v/v) (400 cps)/0.02% sodium lauryl sulfate (v/v) with citrate buffer (pH 4.5) with a concentration of 0.1 mg/mL, 0.2 mg/mL, 0.5 mg/mL and 1 mg/mL with and without stirring. HPLC purity was obtained for the solutions at 3 and 7 days.
An additional sample of crystalline hydrogen sulfate form A in the same buffered formulation was prepared with a concentration of 1 mg/ml and stirred at 500 rpm at room temperature. The sample was monitored every hour for form assessment. The solution was nearly clear at the first 3 hours.

Data set [5] is described as follows: Water solubility of free form solid states at room temperature. The following applies: for XRPD Pattern (solubility measured on); form in water: suspended in water, XRPD after 1 day, PLM after 5 days; for form after suspension in water (microscopic images): five days, room temperature. The procedure: Example 4. Water Solubility of Free Form Solid States at Room Temperature
The samples were shaken at 25° C., 200 rpm. XRPD (taken after the crystalline forms were mixed with water, and after 1 day suspended in water) and PLM (after 5 days) were recorded. […] Table 13 summarizes the water solubility of crystalline forms C and F.

The nature of data set [6]: Form stability of crystalline hydrogen sulfate forms A and B in buffered 0.5% methylcellulose/0.02% sodium lauryl sulfate. Particulars: 10 mg in 10 mL MC/SLS with (pH 4.5) and without sodium citrate buffer, 500 rpm, room temperature, overnight.
Data set [7] can be described thus: Form stability of crystalline form F in 0.5% methylcellulose (400 cps)/0.02% sodium lauryl sulfate. As for the experimental part:
The samples were evaluated at designated time points and PLM images were recorded up to 7 days.

[8] abbreviates: 25° C./60% RH, t = 4 weeks, open vial.
[9] abbreviates: 25° C./60% RH, t = 7 d, open vial.
[10] abbreviates: 25° C./60% RH, t = 14 d, open vial.
The mark [11] stands for this setting: 40° C./75% RH, t = 4 weeks, closed vial.
Where [12] appears, read: 40° C./75% RH, t = 4 weeks, open vial.
Setting [13] is: 40° C./75% RH, t = 7 d, open vial.
[14] abbreviates: 40° C./75% RH, t = 14 d, open vial.

Values after ≈ are worked out from the molar mass of the structure shown. “Also recorded” adds a separate entry of the source. Where a name gives a salt, the structure may show the parent alone. Read-outs that look alike come from different tables or passages of the source.

Regarding `C[C@@H]1COCCN1c1cc([C@]2(O)C[C@H]3CC[C@@H](C2)O3)c2cnn(-c3cc[nH]n3)c2n1` [Crystalline sulfate form A], in data set [1], the appearance after exposure result is recorded as “remained a flowable, white powder” and the “solid-form stability (XRPD)” value was “changed to a mixture of crystalline sulfate form A+another crystalline form of a sulfate salt”. In addition, in data set [2], the Hygroscopicity result is given as “Hygroscopic” and the weight increase is given as 2.8%.
On to `C[C@@H]1COCCN1c1cc([C@]2(O)C[C@H]3CC[C@@H](C2)O3)c2cnn(-c3cc[nH]n3)c2n1` [Crystalline hydrogen sulfate form A], for which the moisture uptake in data set [3] worked out at 1.42%. Besides, the “Hygroscopicity by DVS” value in data set [3] is on record as “slightly hygroscopic”. Moreover, the “form change by XRPD after DVS” value in data set [3] is recorded as “No form change”. Also, in data set [3], the Hygroscopicity entry was “Slightly hygroscopic (e.g., ≥0.2% and <2% weight (Slightly hygroscopic (e.g., ≥0.2% and <2% weight increase at 80% RH, 25° C.))”. In addition, the “HPLC purity of solution” value in data set [4] (0.1 mg/mL, stir, Day 3, MC/SLS with 50 mM citrate buffer (pH 4.5)) came out at 99.82%; in data set [4] (0.1 mg/mL, stir, Day 7, MC/SLS with 50 mM citrate buffer (pH 4.5)), 99.93%; in data set [4] (0.1 mg/mL, w/o stir, Day 3, MC/SLS with 50 mM citrate buffer (pH 4.5)) it was 99.82%; in data set [4] (0.2 mg/mL, stir, Day 3, MC/SLS with 50 mM citrate buffer (pH 4.5)), 99.89%; in data set [4] (0.2 mg/mL, stir, Day 7, MC/SLS with 50 mM citrate buffer (pH 4.5)) it was 99.86%; in data set [4] (0.2 mg/mL, w/o stir, Day 3, MC/SLS with 50 mM citrate buffer (pH 4.5)), 99.89%. The “HPLC purity of solution” value in data set [4] (0.5 mg/mL, stir, Day 3, MC/SLS with 50 mM citrate buffer (pH 4.5)) was 99.91%; in data set [4] (0.5 mg/mL, stir, Day 7, MC/SLS with 50 mM citrate buffer (pH 4.5)), 99.87%; in data set [4] (0.5 mg/mL, w/o stir, Day 3, MC/SLS with 50 mM citrate buffer (pH 4.5)) it was 99.91%; in data set [4] (1 mg/mL, stir, Day 3, MC/SLS with 50 mM citrate buffer (pH 4.5)) it was 99.93%; in data set [4] (1 mg/mL, stir, Day 7, MC/SLS with 50 mM citrate buffer (pH 4.5)), 99.94%; in data set [4] (1 mg/mL, w/o stir, Day 3, MC/SLS with 50 mM citrate buffer (pH 4.5)) it was 99.89%. Moreover, in data set [4] (1 mg/ml in buffered MC/SLS, stirred at 500 rpm, room temperature, monitored every hour), the “form assessment (precipitate, XRPD)” value was “After 4 hours, crystalline form C was observed; also recorded: Precipitation of the free form, crystalline form C was observed after 3 hours”. Also, the “purity of the solutions (HPLC)” value in data set [4] (0.1-1 mg/mL, with and without stirring, 3 and 7 days, citrate buffer pH 4.5) is given as 99.8-99.9%. Moreover, the “XRPD of the samples after exposure vs t=0” value in data set [1] was “matched with the starting materials”. For the same molecule, the HPLC in data set [1] (25° C./60% RH, t = 4 weeks, closed vial) worked out at 99.92%; in data set [1] (setting [8]), 99.91%; in data set [1] (25° C./60% RH, t = 7 d, closed vial) it was 99.936%; in data set [1] (setting [9]), 99.937%; in data set [1] (25° C./60% RH, t = 14 d, closed vial), 100%; in data set [1] (setting [10]), 99.944%. In addition, the HPLC is listed as 99.92% in data set [1] (setting [11]); 99.91% in data set [1] (setting [12]); 99.938% in data set [1] (40° C./75% RH, t = 7 d, closed vial); 99.938% in data set [1] (setting [13]); 100% in data set [1] (40° C./75% RH, t = 14 d, closed vial); 100% in data set [1] (setting [14]). The same molecule yielded an HPLC in data set [1] (t = 0, baseline before storage) of 99.902%.
In the case of `C[C@@H]1COCCN1c1cc([C@]2(O)C[C@H]3CC[C@@H](C2)O3)c2cnn(-c3cc[nH]n3)c2n1` [Crystalline form C], in data set [3], the “Hygroscopicity by DVS” value is “slightly hygroscopic”; the “form change by XRPD after DVS” value is “XRPD pattern changed after DVS compared to the starting material and matched with crystalline form J”; the Hygroscopicity entry is “Slightly hygroscopic (e.g., ≥0.2% and <2% weight (Slightly hygroscopic (e.g., ≥0.2% and <2% weight increase at 80% RH, 25° C.))”. Moreover, the solubility – broadly, the concentration that dissolves in the medium under given conditions – in data set [5] (water, 25 °C, water, thermodynamic from solid, water, 25° C., read-out: water solubility) is approximately 50 µg/mL (≈ 122 µM).
`C[C@@H]1COCCN1c1cc([C@]2(O)C[C@H]3CC[C@@H](C2)O3)c2cnn(-c3cc[nH]n3)c2n1` [Crystalline hydrogen sulfate form B]: in data set [3], the moisture uptake amounted to 15.75%; the “Hygroscopicity by DVS” value is reported as “hygroscopic”; the Hygroscopicity result is “Hygroscopic (e.g., ≥2% and <15% weight increase (Hygroscopic (e.g., ≥2% and <15% weight increase at 80% RH, 25° C.))”. For the same molecule, in data set [1], the appearance after exposure entry was “remained a flowable, white powder” and the “solid-form stability (XRPD)” value is “no significant changes”. Also, the “resulting solid form (XRPD)” value in data set [6] is reported as “convert to crystalline form C; also recorded: The resulting solids were determined to be the free form, crystalline form C as confirmed by XRPD (FIG. 38)”.
Regarding `C[C@@H]1COCCN1c1cc([C@]2(O)C[C@H]3CC[C@@H](C2)O3)c2cnn(-c3cc[nH]n3)c2n1` [Crystalline form B], in data set [3], the “Hygroscopicity by DVS” value was “slightly hygroscopic”; the “form change by XRPD after DVS” value was “did not change”; the Hygroscopicity result was “Slightly hygroscopic (e.g., ≥0.2% and <2% (Slightly hygroscopic (e.g., ≥0.2% and <2% weight increase at 80% RH, 25° C.))”. The “XRPD Pattern (solubility measured on); form in water” value in data set [5] (25° C.) is on record as “converted to crystalline form C”. In addition, the solubility in data set [5] (water, 25 °C, water, thermodynamic from solid, water, 25° C., label = starting material, measured on the form named in the XRPD Pattern column, read-out: Solubility) was 50 µg/mL (≈ 122 µM). In addition, in data set [5] (water), the “form after suspension in water (microscopic images)” value was “converted to crystalline form C”.
Regarding `C[C@@H]1COCCN1c1cc([C@]2(O)C[C@H]3CC[C@@H](C2)O3)c2cnn(-c3cc[nH]n3)c2n1` [Crystalline form F], the “Hygroscopicity by DVS” value in data set [3] is on record as “non hygroscopic”. Moreover, the “form change by XRPD after DVS” value in data set [3] was “no form change”. Moreover, the Hygroscopicity entry in data set [3] is recorded as “Non hygroscopic (e.g., <0.2% weight increase at (Non hygroscopic (e.g., <0.2% weight increase at 80% RH, 25° C.))”. The “XRPD Pattern (solubility measured on); form in water” value in data set [5] (25° C.) is on record as “remained unchanged; also recorded: Crystalline form F”. Also, in data set [5] (water, 25° C.), the water solubility result is reported as “about 0.046 mg/mL”. The same molecule gave a solubility in data set [5] (water, 25° C., label = starting material, measured on the form named in the XRPD Pattern column) of 46 µg/mL (≈ 112 µM). Further, the “form after suspension in water (microscopic images)” value in data set [5] (water) was “unchanged”. In addition, the “aqueous solubility (qualitative)” value in data set [7] is recorded as “very low”. In data set [7] (0.5% methylcellulose (400 cps)/0.02% sodium lauryl sulfate, room temperature, 7 days, PLM and XRPD), the form change entry was “No form change”. Also, in data set [1], the “XRPD of the samples after exposure vs t=0” value is reported as “matched with the starting materials”. Also, the DSC entry in data set [1] (setting [8]), in data set [1] (setting [9]), in data set [1] (setting [10]), in data set [1] (setting [11]), in data set [1] (setting [12]) and in data set [1] (setting [13]) was “No change” in each case. The DSC result in data set [1] (setting [14]) is given as “No change”. Also, the HPLC in data set [1] (setting [8]) is 99.94%; in data set [1] (setting [9]), 99.925%; in data set [1] (setting [10]), 100%; in data set [1] (setting [11]), 99.94%; in data set [1] (setting [12]), 99.94%; in data set [1] (setting [13]), 99.922%. In addition, the HPLC in data set [1] (setting [14]) is 100%; in data set [1] (t = 0), 99.903%. The “TG weight loss by 170° C.” value in data set [1] (setting [8]), in data set [1] (setting [9]), in data set [1] (setting [10]), in data set [1] (setting [11]), in data set [1] (setting [12]) and in data set [1] (setting [13]) was 4.2 wt % loss throughout. For the same molecule, the results for the “TG weight loss by 170° C.” value in data set [1] (setting [14]) and in data set [1] (t = 0) were 4.2 wt % loss and 4.7 wt % loss by, respectively. For the same molecule, the XRPD entry in data set [1] (setting [8]), in data set [1] (setting [9]), in data set [1] (setting [10]), in data set [1] (setting [11]), in data set [1] (setting [12]) and in data set [1] (setting [13]) was “No change” each time. Further, the XRPD result in data set [1] (setting [14]) is given as “No change”.
